We go through two molecules from patent US7858634B2, “Amorphous 3-pyridil-1-hydroxyethyliden-1,1-biphosphonic acid monosodium salt and process for the preparation thereof” (Chemi SpA, priority 2004, dated 2010).

SMILES strings stand for the structures. Where only a bound is given, the exact number is not on record here.

The nature of the series: comparative dissolution test in deionized water. The following applies: for time to complete dissolution: 200 mg suspended in 25 ml deionized water, 20° C., magnetic stirring at 25 rpm, monosodium salt.

`O=P([O-])(O)C(O)(Cc1cccnc1)P(=O)(O)O.[Na+]` [amorphous sodium risedronate, 3-pyridil-1-hydroxyethyliden-1,1-biphosphonic acid monosodium salt]: the “time to complete dissolution” value is listed as ≤ 2 ′. Besides, the “water solubility with respect to crystalline forms” value (amorphous form, preferably lyophilized, vs commercially available or otherwise described crystalline forms) is “improved water solubility”.
On to `O=P([O-])(O)C(O)(Cc1cccnc1)P(=O)(O)O.[Na+]` [sodium risedronate hemipentahydrate, 3-pyridil-1-hydroxyethyliden-1,1-biphosphonic acid monosodium salt], for which the “time to complete dissolution” value is > 30 ′.
